The record followed here is patent publication US7763234B2, “Pharmaceutical compounds” (GE Healthcare AS, priority 2005, dated 2010).

Numbered stars: 1 amine (or outer) side, 2 acyl side, 3 side chain; on linkers, the order of the positions; unused ones are H or OH. Square brackets hold non-standard residues; d marks the D form. Peptide text beside a SMILES is read from it. ξ: configuration not given here. X1 = C/C(=N/O)C(C)(C)NCCC(CCNC(C)(C)/C(C)=N\O)CCN(CC(=O)[*:2])[*:1]; Ile(3ξ) = CCC(C)[C@H](N)C(=O)O

The target in this assay is T1, ACE (Sigma A-6778) (Oryctolagus cuniculus, UniProt P12822).
T1 construct: purchased Sigma A-6778
T1 sequence (P12822 34-1310): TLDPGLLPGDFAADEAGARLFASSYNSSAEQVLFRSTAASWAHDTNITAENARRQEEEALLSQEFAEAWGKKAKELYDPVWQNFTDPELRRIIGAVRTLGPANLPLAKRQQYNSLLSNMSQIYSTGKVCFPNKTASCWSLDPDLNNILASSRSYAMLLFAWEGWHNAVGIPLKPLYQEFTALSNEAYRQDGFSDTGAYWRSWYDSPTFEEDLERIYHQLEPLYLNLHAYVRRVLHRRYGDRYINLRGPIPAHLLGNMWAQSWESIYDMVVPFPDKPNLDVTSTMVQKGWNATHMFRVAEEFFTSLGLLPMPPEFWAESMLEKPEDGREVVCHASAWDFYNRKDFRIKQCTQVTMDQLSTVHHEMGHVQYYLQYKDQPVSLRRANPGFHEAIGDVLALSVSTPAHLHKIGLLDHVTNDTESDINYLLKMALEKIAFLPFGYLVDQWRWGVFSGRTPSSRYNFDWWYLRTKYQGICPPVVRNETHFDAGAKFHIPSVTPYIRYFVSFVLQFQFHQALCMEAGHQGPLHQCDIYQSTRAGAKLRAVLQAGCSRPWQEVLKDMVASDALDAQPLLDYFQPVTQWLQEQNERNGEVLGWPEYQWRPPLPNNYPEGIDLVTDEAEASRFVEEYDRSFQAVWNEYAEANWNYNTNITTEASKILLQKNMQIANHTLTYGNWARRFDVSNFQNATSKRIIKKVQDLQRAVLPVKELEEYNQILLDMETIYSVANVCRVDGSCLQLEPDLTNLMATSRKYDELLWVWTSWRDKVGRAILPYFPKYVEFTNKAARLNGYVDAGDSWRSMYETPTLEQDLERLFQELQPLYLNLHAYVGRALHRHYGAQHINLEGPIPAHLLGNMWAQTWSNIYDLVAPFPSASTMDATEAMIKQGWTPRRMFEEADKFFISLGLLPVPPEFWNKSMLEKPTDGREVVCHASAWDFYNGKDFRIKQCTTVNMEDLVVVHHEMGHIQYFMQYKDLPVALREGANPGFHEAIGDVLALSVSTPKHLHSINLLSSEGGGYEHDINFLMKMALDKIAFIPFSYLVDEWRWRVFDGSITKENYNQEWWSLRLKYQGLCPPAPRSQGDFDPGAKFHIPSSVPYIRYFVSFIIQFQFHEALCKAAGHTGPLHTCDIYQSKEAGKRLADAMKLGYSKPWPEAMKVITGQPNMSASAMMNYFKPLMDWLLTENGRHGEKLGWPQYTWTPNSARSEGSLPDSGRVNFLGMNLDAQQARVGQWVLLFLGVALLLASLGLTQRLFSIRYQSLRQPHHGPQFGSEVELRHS
Briefly: ACE cleavage of Ang I peptide analogues (LC-MS). The class given is biochemical. The settings on record: after 120 min; 0.1 mg peptide in 100 μL ACE stock solution (0.34 mg/mL, 200 mM HEPES pH 7.8), room temperature. The procedure:
ACE stock solution was prepared: 0.34 mg ACE (Sigma A-6778) was dissolved in 1 mL 200 mM HEPES adjusted to pH 7.8 using KOH.
0.1 mg of the Ang I peptide analogue was dissolved in 100 μL of the ACE stock solution and the solution incubated at room temperature. Samples (10 μL) were withdrawn from the solution, diluted with H2O/0.1% TFA (400 μL) and analysed by LC-MS.

`CCC(C)[C@H](NC(=O)[C@H](Cc1ccc(O)cc1)NC(=O)[C@@H](NC(=O)[C@H](CCCNC(=N)N)NC(=O)CNCCC(CCNC(C)(C)/C(C)=N\O)CCNC(C)(C)/C(C)=N\O)C(C)C)C(=O)N[C@@H](Cc1cnc[nH]1)C(=O)N1CCC[C@H]1C(=O)N[C@@H](Cc1ccccc1)C(=O)N[C@@H](Cc1cnc[nH]1)C(=O)N[C@@H](CC(C)C)C(=O)O` (stereo partly drawn) [cPn216-Gly-Arg-Val-Tyr-Ile-His-Pro-Phe-His-Leu-OH] (H-[X1]RVY[Ile(3ξ)]HPFHL-OH) gave a percent cleavage/time of 40%/120 min.

With “Ang I: the decapeptide Ang I, formed from angiotensinogen by renin and converted by ACE to the active Ang II”, the percent cleavage/time came out at 40%/120 min.
